Measured values from ChEMBL document CHEMBL1201862, “PubChem BioAssay data set” (2004).
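Exposure lasted 48 hours, with cells grown in 96-well plates and compounds tested at five concentrations. Here, GI50 denotes the concentration required for 50% inhibition of growth.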 The source made the active and inactive calls. No stated cut-off is given here; in the data, active = GI50 up to about 1.1 µM and inactive = higher.

Legend:
Test in all cases: NCI tumour cell line growth inhibition, 48 h
[1] = test system: MOLT-4
[2] = test system: EKVX
[3] = test system: A498
[4] = test system: IGROV-1
[5] = test system: Hs-578T
[6] = test system: CCRF-CEM
[7] = test system: OVCAR-3
[8] = test system: SNB-75
[9] = test system: MDA-MB-231
[10] = test system: OVCAR-4
[11] = test system: NCI-H522
[12] = test system: SF-295
[13] = test system: SN12C
[14] = test system: UO-31
[15] = test system: ACHN
[16] = test system: SK-MEL-2
[17] = test system: HL-60
[18] = test system: SW-620
[19] = test system: SK-MEL-28
[20] = test system: CAKI-1
[21] = test system: LOX IMVI
[22] = test system: NCI-H23
[23] = test system: 786-0
[24] = test system: SNB-19
[25] = test system: RXF 393
[26] = test system: Malme-3M
[27] = test system: SK-MEL-5
[28] = test system: COLO 205
[29] = test system: OVCAR-8
[30] = test system: HCT-116
[31] = test system: UACC-62
[32] = test system: MDA-MB-435
[33] = test system: K562
[34] = test system: KM12
[35] = test system: MDA-N
[36] = test system: MCF7
[37] = test system: HOP-62
[38] = test system: SF-539
[39] = test system: NCI-H226
[40] = test system: TK-10
[41] = test system: HT-29
[42] = test system: UACC-257
[43] = test system: HOP-92
[44] = test system: T47D
[45] = test system: M14
[46] = test system: NCI/ADR-RES
[47] = test system: OVCAR-5
[48] = test system: SF-268
[49] = test system: HCT-15
[50] = test system: HCC 2998
[51] = test system: DU-145
[52] = test system: U-251
[53] = test system: SK-OV-3
[54] = test system: BT-549
[55] = test system: NCI-H460
[56] = test system: PC-3
[57] = test system: A549
[58] = test system: RPMI-8226

SMILES: NCC(Cc1ccccc1)P(=O)(O)O (stereo unspecified)
- GI50 [1]: > 100 µM (inactive)
- GI50 [2]: > 100 µM (inactive)
- GI50 [3]: > 100 µM (inactive)
- GI50 [4]: > 100 µM (inactive)
- GI50 [5]: > 100 µM (inactive)
- GI50 [6]: > 100 µM (inactive)
- GI50 [7]: > 100 µM (inactive)
- GI50 [8]: > 100 µM (inactive)
- GI50 [9]: > 100 µM (inactive)
- GI50 [10]: > 100 µM (inactive)
- GI50 [11]: > 100 µM (inactive)
- GI50 [12]: > 100 µM (inactive)
- GI50 [13]: > 100 µM (inactive)
- GI50 [14]: > 100 µM (inactive)
- GI50 [15]: > 100 µM (inactive)
- GI50 [16]: > 100 µM (inactive)
- GI50 [17]: > 100 µM (inactive)
- GI50 [18]: > 100 µM (inactive)
- GI50 [19]: > 100 µM (inactive)
- GI50 [20]: > 100 µM (inactive)
- GI50 [21]: > 100 µM (inactive)
- GI50 [22]: > 100 µM (inactive)
- GI50 [23]: > 100 µM (inactive)
- GI50 [24]: > 100 µM (inactive)
- GI50 [25]: > 100 µM (inactive)
- GI50 [26]: > 100 µM (inactive)
- GI50 [27]: > 100 µM (inactive)
- GI50 [28]: > 100 µM (inactive)
- GI50 [29]: > 100 µM (inactive)
- GI50 [30]: > 100 µM (inactive)
- GI50 [31]: > 100 µM (inactive)
- GI50 [32]: > 100 µM (inactive)
- GI50 [33]: > 100 µM (inactive)
- GI50 [34]: > 100 µM (inactive)
- GI50 [35]: > 100 µM (inactive)
- GI50 [36]: > 100 µM (inactive)
- GI50 [37]: > 100 µM (inactive)
- GI50 [38]: > 100 µM (inactive)
- GI50 [39]: > 100 µM (inactive)
- GI50 [40]: > 100 µM (inactive)
- GI50 [41]: > 100 µM (inactive)
- GI50 [42]: > 100 µM (inactive)
- GI50 [43]: > 100 µM (inactive)
- GI50 [44]: > 100 µM (inactive)
- GI50 [45]: > 100 µM (inactive)
- GI50 [46]: > 100 µM (inactive)
- GI50 [47]: > 100 µM (inactive)
- GI50 [48]: > 100 µM (inactive)
- GI50 [49]: > 100 µM
- GI50 [50]: > 100 µM (inactive)
- GI50 [51]: > 100 µM (inactive)
- GI50 [52]: > 100 µM (inactive)
- GI50 [53]: > 100 µM (inactive)
- GI50 [54]: > 100 µM (inactive)
- GI50 [55]: > 100 µM (inactive)
- GI50 [56]: > 100 µM (inactive)
- GI50 [57]: > 100 µM (inactive)

SMILES: CC(C)(C)c1ccc(NS(=O)(=O)c2ccc(N)cc2)cc1
- GI50 [1]: 14.5 µM (inactive)
- GI50 [2]: 26.9 µM (inactive)
- GI50 [3]: 20.1 µM (inactive)
- GI50 [4]: 18.8 µM (inactive)
- GI50 [5]: 27.4 µM (inactive)
- GI50 [6]: 16.3 µM (inactive)
- GI50 [7]: 2.76 µM (inactive)
- GI50 [8]: 30.8 µM (inactive)
- GI50 [9]: 25.8 µM (inactive)
- GI50 [10]: 35.8 µM (inactive)
- GI50 [11]: 17 µM (inactive)
- GI50 [12]: 1.9 µM (inactive)
- GI50 [13]: 22.3 µM (inactive)
- GI50 [14]: 24.9 µM (inactive)
- GI50 [15]: 29.4 µM (inactive)
- GI50 [16]: 19.5 µM (inactive)
- GI50 [17]: 18.1 µM (inactive)
- GI50 [18]: 26.9 µM (inactive)
- GI50 [19]: 27.2 µM (inactive)
- GI50 [20]: 38.3 µM (inactive)
- GI50 [21]: 17.6 µM (inactive)
- GI50 [22]: 26 µM (inactive)
- GI50 [23]: 23 µM (inactive)
- GI50 [24]: 35.7 µM (inactive)
- GI50 [25]: 29.1 µM (inactive)
- GI50 [26]: 19.5 µM (inactive)
- GI50 [27]: 17.9 µM (inactive)
- GI50 [28]: 16.1 µM (inactive)
- GI50 [29]: 27.5 µM (inactive)
- GI50 [30]: 18 µM (inactive)
- GI50 [31]: 15.7 µM (inactive)
- GI50 [32]: 29.9 µM (inactive)
- GI50 [33]: 17.8 µM (inactive)
- GI50 [34]: 36.6 µM (inactive)
- GI50 [35]: 23.6 µM (inactive)
- GI50 [36]: 18.4 µM (inactive)
- GI50 [37]: 0.634 µM (active)
- GI50 [38]: 25.8 µM (inactive)
- GI50 [39]: 22.2 µM (inactive)
- GI50 [40]: 59 µM (inactive)
- GI50 [41]: 19 µM (inactive)
- GI50 [42]: 38.4 µM (inactive)
- GI50 [44]: 28.3 µM (inactive)
- GI50 [45]: 20.5 µM (inactive)
- GI50 [46]: 25.4 µM (inactive)
- GI50 [47]: 31.5 µM (inactive)
- GI50 [48]: 26.9 µM (inactive)
- GI50 [49]: 30.3 µM
- GI50 [50]: 18.8 µM (inactive)
- GI50 [58]: 11.6 µM (inactive)
- GI50 [51]: 30.5 µM (inactive)
- GI50 [52]: 19.3 µM (inactive)
- GI50 [53]: 3.29 µM (inactive)
- GI50 [54]: 23.4 µM (inactive)
- GI50 [55]: 33.7 µM (inactive)
- GI50 [56]: 28.5 µM (inactive)
- GI50 [57]: 27.1 µM (inactive)

SMILES: C[C@H](C1CC(C)(O)C(C)(O)C(O)O1)[C@H]1CC[C@H]2[C@@H]3[C@@H]4O[C@@H]4[C@@]4(O)CC=CC(=O)[C@]4(C)[C@H]3CC[C@]12C (stereo partly specified)
- GI50 [1]: > 50 µM (inactive)
- GI50 [2]: > 50 µM (inactive)
- GI50 [3]: 22.4 µM (inactive)
- GI50 [4]: > 50 µM (inactive)
- GI50 [5]: 0.039 µM (active)
- GI50 [6]: > 50 µM (inactive)
- GI50 [7]: > 50 µM (inactive)
- GI50 [8]: 20.9 µM (inactive)
- GI50 [9]: 44 µM (inactive)
- GI50 [10]: > 50 µM (inactive)
- GI50 [11]: 18.2 µM (inactive)
- GI50 [12]: > 50 µM (inactive)
- GI50 [13]: > 50 µM (inactive)
- GI50 [14]: 7.55 µM (inactive)
- GI50 [15]: 45.4 µM (inactive)
- GI50 [16]: > 50 µM (inactive)
- GI50 [17]: > 50 µM (inactive)
- GI50 [18]: > 50 µM (inactive)
- GI50 [19]: > 50 µM (inactive)
- GI50 [20]: > 50 µM (inactive)
- GI50 [21]: > 50 µM (inactive)
- GI50 [22]: > 50 µM (inactive)
- GI50 [23]: 15.5 µM (inactive)
- GI50 [24]: > 50 µM (inactive)
- GI50 [25]: 22.1 µM (inactive)
- GI50 [26]: 2.67 µM (inactive)
- GI50 [27]: > 50 µM (inactive)
- GI50 [28]: > 50 µM (inactive)
- GI50 [29]: 30.4 µM (inactive)
- GI50 [30]: 36.9 µM (inactive)
- GI50 [31]: > 50 µM (inactive)
- GI50 [32]: > 50 µM (inactive)
- GI50 [33]: > 50 µM (inactive)
- GI50 [34]: > 50 µM (inactive)
- GI50 [35]: > 50 µM (inactive)
- GI50 [36]: > 50 µM (inactive)
- GI50 [37]: 27.8 µM (inactive)
- GI50 [39]: 22.9 µM (inactive)
- GI50 [40]: > 50 µM (inactive)
- GI50 [41]: > 50 µM (inactive)
- GI50 [42]: > 50 µM (inactive)
- GI50 [43]: 33.6 µM (inactive)
- GI50 [44]: > 50 µM (inactive)
- GI50 [45]: > 50 µM (inactive)
- GI50 [46]: > 50 µM (inactive)
- GI50 [47]: > 50 µM (inactive)
- GI50 [48]: 5.31 µM (inactive)
- GI50 [49]: > 50 µM
- GI50 [50]: > 50 µM (inactive)
- GI50 [58]: > 50 µM (inactive)
- GI50 [51]: > 50 µM (inactive)
- GI50 [52]: > 50 µM (inactive)
- GI50 [53]: 14.8 µM (inactive)
- GI50 [54]: > 50 µM (inactive)
- GI50 [55]: > 50 µM (inactive)
- GI50 [56]: > 50 µM (inactive)
- GI50 [57]: > 50 µM (inactive)
